Test results as given in PMC10584170, “Machine learning-based phenotypic imaging to characterise the targetable biology of Plasmodium falciparum male gametocytes for the development of transmission-blocking antimalarials” (PLOS Pathogens, 2023).
pIC50: −log10 of the molar value. Where two headings read alike, the source gives them in different places.

Columns and labels:
[1] = tested on: P. falciparum male gametocytes; assay: P. falciparum Dual Gamete Formation Assay (PfDGFA), male readout (exflagellation); assay type: cell-based, Plasmodium falciparum NF54; settings: for Selectivity Ratio M: HepG2 Tox50 versus male IC50; for inhibition at 2 µM: 24h preincubation with gametocytes
Method in brief: (§1)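 Read-outs are automated image counts of exflagellation centres (brightfield, 10 frames over 1 s) and Pfs25-positive female gametes (Cy3 fluorescence).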

HepG2 cells [2] = settings: cited from earlier work
[3] = tested on: P. falciparum female gametocytes; assay: P. falciparum Dual Gamete Formation Assay (PfDGFA), female readout (Pfs25-positive female gametes); assay type: cell-based, Plasmodium falciparum NF54; settings: for Selectivity ratio F: HepG2 Tox50 versus female IC50; for inhibition at 2 µM: 24h preincubation with gametocytes
Method in brief: as §1

HepG2 cells [4] = assay: HepG2 cytotoxicity counter-screen; settings: for Mean TOX: mean of the HepG2 TOX50 values; for Tox50: cytotoxic activity against HepG2 cells
[5] = tested on: P. berghei ookinete development; assay: P. berghei Ookinete Development Assay (PbODA); assay type: cell-based, Plasmodium berghei; settings: Mean TOX HepG2 over Pb ODA value; GREEN = >10-fold; RED = <10-fold
Excerpt: (§2) Fig 1 The activity of TCAMS compound identified in the Pf DGFA screen. (A) 85 molecules were confirmed active in the Pf DGFA. 58 were previously identified in one or more transmission-blocking screens. […] No molecule was identified with >4.7-fold greater activity against female gametocytes. Abbreviations (IC50 = concentration giving 50% inhibition, PbODA = P. berghei Ookinete Development Assay, PfDGFA = P. falciparum Dual Gamete Formation Assay, PfFGAA = P. falciparum Female Gametocyte Activation Assay, PfGCT = P. falciparum Gametocyte Viability ATP Assay).

[6] = tested on: P. falciparum female gametocytes; parameters: method as in Miguel-Blanco et al 2017; settings: ref Miguel-Blanco et al 2017; read-out: Pf female gametogenesis FGAA IC50; cited from earlier work
[7] = tested on: P. falciparum female gametocytes; assay: P. falciparum Female Gametocyte Activation Assay (PfFGAA); assay type: cell-based, Plasmodium falciparum
Excerpt: as §2

[8] = this study, read-out: Pf DGFA IC50 MALE
[9] = this study, read-out: Pf DGFA IC50 FEM
[10] = Mean TOX HepG2 over FGAA IC50, GREEN = >10-fold, RED = <10-fold
[11] = Mean TOX HepG2 over DGFA IC50 MALE, GREEN = >10-fold, RED = <10-fold
[12] = Plasmodium falciparum, PfDGFA, 24 h incubation with gametocytes before induction, exflagellation readout, read-out: Male IC50
[13] = HepG2 value reported with the FGAA screen, ref Miguel-Blanco et al 2017
[14] = Mean TOX HepG2 over DGFA IC50 FEM, GREEN = >10-fold, RED = <10-fold
[15] = Plasmodium falciparum, PfDGFA, 24 h incubation with gametocytes before induction, female gamete readout, read-out: Female IC50

Row | pIC50 [1, 8] | pIC50 [3, 9] | SMILES | Cytotox ratio Pf Male [1] | ODA TOX50 HepG2 (HepG2 cells [2]) | Cytotox ratio Pf Female [3] | Mean TOX (HepG2 cells [4]) | pIC50 [6] | FGAA TOX50 HepG2 (HepG2 cells [2]) | Cytotox ratio Pf FGAA [7, 10] | also measured
1 | 6.01 | 6.13 | CCc1cc2c(Sc3nnc(N)s3)ncnc2s1 [TC12] | 47.6 |  | 63.0 | 46.65 µM | 6.14 | 32.3 µM | 63.9 | 
2 | 7.00 |  | COc1ccc(Nc2ncc(C#N)c(Nc3ccccc3C(N)=O)n2)cc1N1CCN(C)CC1.Cl [TC22] | 89.5 | 8.318 µM | 0.9 | 8.95 µM |  |  |  | Cytotox ratio Pb Ookinete [5]: 308001.0
3 | 6.34 | 5.26 | CN1CCN(c2ccc(Nc3ncc(Cl)c(Nc4cccnc4C(N)=O)n3)cc2)CC1.Cl [TC24] | 11.9 | 4.624 µM | 1.0 | 5.46 µM |  |  |  | Cytotox ratio Pb Ookinete [5]: 13093.5
4 | 6.55 |  | COc1ccc(-c2cnc(N)c(-c3ccc(C(N)=O)cc3)c2)cc1OC [TC26] | 205.6 | 100 µM | 5.8 | 57.57 µM |  |  |  | Cytotox ratio Pb Ookinete [5]: 82067.7
5 | 5.73 | 5.89 | COc1cccc(C23NC(=Nc4nc5ccccc5[nH]4)NC2(c2cccc(OC)c2)NC(=Nc2nc4ccccc4[nH]2)N3)c1 (centres unmarked) [TC54] | 19.8 |  | 28.1 | 36.56 µM | 7.05 | 40.74 µM | 406.2 | 
6 | 6.02 | 5.99 | c1ccc(-c2nc(Nc3nc4ccccc4[nH]3)[nH]c2-c2ccccc2)cc1 [TC56] | 14.3 |  | 13.3 | 13.60 µM | 6.24 | 10.98 µM | 23.4 | 
7 | 6.04 | 6.57 | CC(C)(CN)c1nc(-c2ccc(Cl)c(O)c2)c(-c2ccncc2)[nH]1.Cl [TC61] |  | 1.66 µM |  | 7.15 µM | 6.03 | 2.16 µM |  | 
8 | 6.07 | 5.15 | CCN(CC)CCN(Cc1ccc(-c2ccc(C(F)(F)F)cc2)cc1)C(=O)Cn1cc(Cc2cnn(C)c2)c(=O)nc1/C=C/c1ccc(F)cc1.O=C(O)C(O)C(O)C(=O)O [TC64] | 17.8 |  | 2.1 | 15.09 µM | 5.92 | 13.81 µM | 12.5 | 

Further lines, the compound ahead of its results:

Row | SMILES | pIC50 [1, 8] | pIC50 [3, 9] | Cytotox ratio Pf Male [1] | ODA TOX50 HepG2 (HepG2 cells [2]) | Cytotox ratio Pf Female [3] | Mean TOX (HepG2 cells [4]) | pIC50 [6] | FGAA TOX50 HepG2 (HepG2 cells [2]) | Cytotox ratio Pf FGAA [7, 10] | also measured
9 | Br.CC[C@H]1CN2CCc3cc(OC)c(OC)cc3[C@@H]2C[C@@H]1C[C@H]1NCCc2c1cc(OC)c(O)c2I [TC07] | 6.08 | 6.54 | 7.0 | 5.433 µM | 20.3 | 5.89 µM |  |  |  | Cytotox ratio Pb Ookinete [5]: 8736.5
10 | Cc1ccc(C(C(=O)Nc2ccc(N3CCNCC3)c(Cl)c2)c2ccccc2)cc1 (centres unmarked) [TC10] | 6.38 |  | 27.6 |  | 1.2 | 11.61 µM | 6.18 | 11.89 µM | 17.6 | 
11 | CCC1=C[C@@H]2CN(C1)Cc1c([nH]c3ccccc13)[C@@](C(=O)OC)(c1cc3c(cc1OC)N(C)[C@H]1[C@@](O)(C(=O)OC)[C@H](O)[C@]4(CC)C=CCN5CC[C@]31[C@@H]54)C2.O=S(=O)(O)O [TC21] | 8.00 |  | 4844.5 | 41.2098 µM | 4.8 | 48.44 µM |  |  |  | Cytotox ratio Pb Ookinete [5]: 80190.9
12 | FC(F)(F)c1ccc2[nH]c(-c3ccc(-c4ccc(CNCCN5CCNCC5)cc4)cc3)nc2c1.O=C(O)C(F)(F)F [TC40] | 5.84 | 5.22 | 10.3 |  | 2.5 | 15.09 µM | 5.85 | 16.43 µM | 10.7 | 
13 | O=C1Nc2ccccc2C1=NNC(=S)N1CCOCC1 [TC50] | 5.69 | 5.75 | 22.9 |  | 26.0 | 46.30 µM | 6.62 |  | 192.9 | DGFA Tox50 HepG2 (HepG2 cells [4]; HepG2 value reported with the DGFA screen): 46.3 µM
14 | COc1ccc2nc(N=C3NC4(c5ccccc5)NC(=Nc5nc6ccc(OC)cc6[nH]5)NC4(c4ccccc4)N3)[nH]c2c1.O=C(O)C(F)(F)F (centres unmarked) [TC55] | 5.94 | 5.23 | 41.5 |  | 8.2 | 48.12 µM | 6.92 | 62.72 µM | 401.0 | 
15 | FC(F)(F)c1ccc2[nH]c(-c3ccc(-c4cccc(CNCCN5CCNCC5)c4)cc3)nc2c1.O=C(O)C(F)(F)F [TC77] | 5.79 | 5.29 | 10.0 |  | 3.2 | 16.43 µM | 5.77 | 12.31 µM | 9.6 | 
16 | CC(Nc1cc(-c2ccccn2)nc(-c2ccccn2)n1)c1ccccc1 (centres unmarked) [TCMDC-125420] |  |  |  |  |  | 6.79 µM | 6.68 |  |  | Selectivity Ratio M [1]: 3.89; Cytotox ratio Pf Male [1, 11]: 3.6; inhibition at 2 µM ([1]; Plasmodium falciparum, PfDGFA at 2µM, average of replicates, read-out: Average inhibition male (%)): 78.7%; inhibition at 2 µM ([1]; Plasmodium falciparum, PfDGFA at 2µM, replicate R1, read-out: % inhibition male (individual replicates) R1): 74.1%; inhibition at 2 µM ([1]; Plasmodium falciparum, PfDGFA at 2µM, replicate R2, read-out: % inhibition male (individual replicates) R2): 77.3%; inhibition at 2 µM ([1]; Plasmodium falciparum, PfDGFA at 2µM, replicate R4, read-out: % inhibition male (individual replicates) R4): 84.5%; pIC50 [1, 12]: 5.72; HitlevelM ([1]; number of replicates with >50% inhibition in the male readout, 2µM): 3; FGAA TOX50 HepG2 (HepG2 cells [2]; [13]): 6.18 µM; Selectivity ratio F [3]: 10.4; Cytotox ratio Pf Female [3, 14]: 9.6; inhibition at 2 µM ([3]; Plasmodium falciparum, PfDGFA at 2µM, average of replicates, read-out: Average inhibition female (%)): 56%; inhibition at 2 µM ([3]; Plasmodium falciparum, PfDGFA at 2µM, replicate R1, read-out: % inhibition female (individual replicates) R1): 55.2%; inhibition at 2 µM ([3]; Plasmodium falciparum, PfDGFA at 2µM, replicate R2, read-out: % inhibition female (individual replicates) R2): 57.8%; inhibition at 2 µM ([3]; Plasmodium falciparum, PfDGFA at 2µM, replicate R3, read-out: % inhibition female (individual replicates) R3): 63%; inhibition at 2 µM ([3]; Plasmodium falciparum, PfDGFA at 2µM, replicate R4, read-out: % inhibition female (individual replicates) R4): 48%; pIC50 [3, 15]: 6.15; HitlevelF ([3]; number of replicates with >50% inhibition in the female readout, 2µM): 3; Tox50 (HepG2 cells [4]): 7.4 µM; Cytotox ratio Pf FGAA ([7]; human): 29.4
17 | CN(C)CCOc1ccc(NC(=O)NC(C)(C)c2nc(-c3ccc(Cl)c(O)c3)c(-c3ccncc3)[nH]2)cc1.Cl [TCMDC-140744] |  |  |  |  |  | 21.75 µM | 6.14 |  |  | Selectivity Ratio M [1]: 89.77; Cytotox ratio Pf Male [1, 11]: 65.9; inhibition at 2 µM ([1]; Plasmodium falciparum, 2µM, average of replicates, read-out: Average inhibition male (%)): 97.8%; inhibition at 2 µM ([1]; Plasmodium falciparum, 2µM, replicate R1, read-out: % inhibition male (individual replicates) R1): 98.2%; inhibition at 2 µM ([1]; Plasmodium falciparum, 2µM, replicate R2, read-out: % inhibition male (individual replicates) R2): 101%; inhibition at 2 µM ([1]; Plasmodium falciparum, 2µM, replicate R3, read-out: % inhibition male (individual replicates) R3): 95.7%; inhibition at 2 µM ([1]; Plasmodium falciparum, 2µM, replicate R4, read-out: % inhibition male (individual replicates) R4): 96.3%; pIC50 [1, 12]: 6.48; FGAA TOX50 HepG2 (HepG2 cells [2]; [13]): 14.3 µM; Selectivity ratio F [3]: 76.37; Cytotox ratio Pf Female [3, 14]: 57.2; inhibition at 2 µM ([3]; Plasmodium falciparum, 2µM, average of replicates, read-out: Average inhibition female (%)): 95.5%; inhibition at 2 µM ([3]; Plasmodium falciparum, 2µM, replicate R1, read-out: % inhibition female (individual replicates) R1): 91.1%; inhibition at 2 µM ([3]; Plasmodium falciparum, 2µM, replicate R2, read-out: % inhibition female (individual replicates) R2): 96.2%; inhibition at 2 µM ([3]; Plasmodium falciparum, 2µM, replicate R3, read-out: % inhibition female (individual replicates) R3): 101%; inhibition at 2 µM ([3]; Plasmodium falciparum, 2µM, replicate R4, read-out: % inhibition female (individual replicates) R4): 93.9%; pIC50 [3, 15]: 6.42; Tox50 (HepG2 cells [4]): 29.19 µM; Cytotox ratio Pf FGAA ([7]; human): 29.8
